Patent US20090286713A9, “Collagen Receptor I-Domain Binding Modulators” (Biotie Therapies Corporation, priority 2005, published 2009)

Tests used:
α10 I-domain = target: T1, α10 I-domain (Homo sapiens, UniProt O75578); test: Solid-phase binding assay, α10 I-domain binding to type I collagen; conditions: at 0.05 mM concentration; FIG. 9
T1 construct: corresponding to amino acids 141-337 of the whole α10 integrin; made in house; host or cells: E. coli BL21 (pGEX-2T)
T1 sequence (O75578 163-359): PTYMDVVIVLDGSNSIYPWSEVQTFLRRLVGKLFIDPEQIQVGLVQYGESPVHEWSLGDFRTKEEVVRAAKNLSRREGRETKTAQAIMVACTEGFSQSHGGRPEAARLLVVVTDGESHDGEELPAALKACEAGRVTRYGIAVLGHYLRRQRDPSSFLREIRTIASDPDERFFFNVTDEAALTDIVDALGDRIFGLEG
Procedure: (§1) Solid-phase binding assay for α1-domains—The coating of a 96-well high binding microtiter plate (Nune) was done by exposure to 0.1 ml of PBS containing 5 μg/cm2 (15 μg/ml) collagens or 20 μg/ml triple-helical peptides overnight at +4° C. Blank wells were coated with 1:1 solution of 0.1 ml Delfia® Diluent II (Wallac) and PBS. Residual protein absorption sites on all wells were blocked with 1:1 solution of 0.1 ml Delfia® Diluent II (Wallac) and PBS. Recombinant proteins (αI-GST) were added to the coated wells at a desired concentration in Delfia® Assay Buffer and incubated for 1 h at room temperature. Europium-labelled anti-GST antibody (Wallac) was then added (typically 1:1000), and the mixture was incubated for 1 h at room temperature. All incubations mentioned above were done in the presence of 2 mM MgCl2. Delfia® enhancement solution (Wallac) was added to each well and the Europium signal was measured by time-resolved fluorometry (Victor2 multilabel counter, Wallac). At least three parallel wells were analyzed. In some cases some what modified solid-phase assay was used and it was performed according Tulla et al, 2001. It uses anti-GST and Europium-labelled protein G instead of Europium-labelled anti-GST antibody.
(§2) The inhibitory effect of L3009 was tested with all collagen binding integrin α I-domains, α1I, α2I, α10I and α11I as described in Example 4. […]

α11 I-domain = target: T2, α11 I-domain (Homo sapiens, UniProt Q9UKX5); test: Solid-phase binding assay, α11 I-domain binding to type I collagen; conditions: at 0.05 mM concentration; FIG. 9
T2 construct: two extra residues before α11I, residues 159-354; made in house; host or cells: E. coli BL21
T2 sequence (Q9UKX5 159-354): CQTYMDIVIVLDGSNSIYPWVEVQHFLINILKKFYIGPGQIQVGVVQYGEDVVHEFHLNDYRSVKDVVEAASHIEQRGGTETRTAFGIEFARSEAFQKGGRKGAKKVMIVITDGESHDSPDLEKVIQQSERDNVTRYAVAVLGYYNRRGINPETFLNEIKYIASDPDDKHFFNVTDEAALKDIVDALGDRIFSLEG
Procedure: as §1, §2

α2 I-domain = target: T3, α2 I-domain (Homo sapiens, UniProt P17301); test: Solid-phase binding assay, α2 I-domain binding to type I collagen
T3 construct: corresponded to amino acids 124-339 of the whole α2 integrin; made in house; host or cells: E. coli BL21 (pGEX-2T)
T3 sequence (P17301 153-368): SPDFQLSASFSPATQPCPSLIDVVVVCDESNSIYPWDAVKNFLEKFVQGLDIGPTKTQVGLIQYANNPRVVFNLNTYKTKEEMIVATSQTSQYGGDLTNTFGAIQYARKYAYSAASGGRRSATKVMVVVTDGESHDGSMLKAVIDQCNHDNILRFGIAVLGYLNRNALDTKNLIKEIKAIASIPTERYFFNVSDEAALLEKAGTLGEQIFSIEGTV
Procedure: as §1
The tetracyclic Streptomyces compounds synthesised in Example 1, where screened for inhibition of collagen binding to α1 and α2 I-domains, using the α I-domain assay described in Example 4. […] L3015 could inhibit the binding of both α1I and α2 I-domains to type I and type IV collagen (FIG. 6B).
Based on the utilization of 3D model other compounds from the polyketide family were tested. The compounds were tested in the europium-labelled anti-GST assay described in Example 4. Tetracyclic polyketides L3007, L3008, and L3009 could inhibit α2 I-domain binding to type I collagen (FIG. 8A).

COC(=O)c1c(C(C)C)cc(O)c2c(O)c3c(c(O)c12)C(=O)c1cccc(O)c1C3=O [Compound L3009, methyl 4,5,7,12-tetrahydroxy-2-methylethyl)-6,11-dioxonaphthacenecarboxylate]
could inhibit: inhibition of collagen I binding of α10I (α10 I-domain) | inhibition of collagen I binding of α11I (α11 I-domain) | inhibition of α2 I-domain binding to type I collagen (in words) (α2 I-domain; FIG. 6B, 7A, 8A) | inhibition of collagen I binding of α2I (α2 I-domain; at 0.05 mM concentration, FIG. 9)
